Laboratory results published in patent US11827609B2, “Toll like receptor modulator compounds” (GILEAD SCIENCES, INC., priority 2016, dated 2023).

What was measured:
Format in all cases: cell-based
TNFα = assay: Cytokine profiling assay in human PBMCs, TNFα detection (MSD); conditions: PBMC; cryopreserved human PBMCs, 24 hours at 37° C., half-maximal effect on normalized percent activation; read-out: TNFa AC50
Description: (§1) Cryopreserved human PBMCs isolated from healthy donors were purchased from StemCell Technologies (Vancouver, Canada). Cell culture medium used was RPMI with L-Glutamine (Mediatech, Manassas, Va.) supplemented with 10% fetal bovine serum (Hyclone, GE Healthcare, Logan, Utah) and Penicillin-Streptomycin (Mediatech). Human TNFα, IL12p40, and IFNα2a 384-well Assay capture plates, standards, buffers and processing reagents were obtained from MesoScale Discovery Technologies (MSD; Rockville, Md.).
(§2) Cryopreserved human PBMCs (1×10e8 cells/ml) were thawed at 37° C. and resuspended in 25 mL warm cell culture medium. The cells were pelleted at 200×g (Beckman Avanti J-E) for 5 min and resuspended in 20 mL of fresh culture media. Cells were counted using a Cellometer (Nexcelcom Bioscience), adjusted to 2×10e6 cells, and incubated for 2 hours in an incubator set at 37° C., 5% CO2 to recover from cryopreservation. Compounds were serially diluted in DMSO at half-log steps to generate a 10-point dose range. Using a Bravo pipette equipped with a 384 well head (Agilent), 0.4 μL of compound was transferred to each well of a 384 well black, clear bottom plate (Greiner Bio-One, Germany) containing 30 μL of cell culture medium. Recovered PBMCs were then dispensed into the assay plate at 50 μL per well (100 k cells/well) using the MicroFlow multichannel dispenser (Biotek). Final DMSO concentration was 0.5%. DMSO was used as the negative control. The plates were incubated for 24 hours at 37° C. PBMCs in the assay plate were pelleted by centrifugation (Beckman Avanti J-E) at 200×g for 5 min.
(§3) Using a Biomek FX 384 well pipetting station (Beckman), conditioned culture medium (CCM) from the assay plate was transferred to MSD capture plates customized for each cytokine. For IFNα and IL12-p40 detection, […], of CCM were added directly to each capture plate, respectively. For TNFα detection, CCM was diluted 1:9 in fresh culture medium, and […], of diluted CCM was used. Serially diluted calibration standards for each cytokine were used to generate standard curves and establish assay linearity. The plates were sealed and incubated overnight at 4° C. in a plate shaker (Titer Plate) set at 200 rpm. On the following day, antibodies specific for each cytokine were diluted 1:50 in MSD Diluent 100 antibody dilution buffer. Diluted antibodies were added to corresponding capture plates at 10 μL/well, and incubated at RT for 1-2 hrs in the shaker. The plates were washed with PBST buffer (3×, 60 μl/well) using a Biotek Multiflow plate washer. MSD Read Buffer diluted to 2× in deionized water and 35 μL/well was added via Biomek FX instrument. The plates were read immediately in a MSD6000 reader. Data were normalized to positive and negative controls in each assay plate. AC50 values represent compound concentrations at half-maximal effect based on normalized percent activation and calculated by non-linear regression using Pipeline Pilot software (Accelrys, San Diego, Calif.).

IL12p40 = assay: Cytokine profiling assay in human PBMCs, IL12p40 detection (MSD); conditions: PBMC; cryopreserved human PBMCs, 24 hours at 37° C., half-maximal effect on normalized percent activation
Description: as §1, §2, §3

IFNα = assay: Cytokine profiling assay in human PBMCs, IFNα detection (MSD); conditions: PBMC; cryopreserved human PBMCs, 24 hours at 37° C., half-maximal effect on normalized percent activation; read-out: IFNa AC50
Description: as §1, §2, §3

CCCC[C@](C)(CNC(C)=O)Nc1nc(N)nc2ccccc12 [Example 1, (R)—N-(2-((2-aminoquinazolin-4-yl)amino)-2-methylhexyl)acetamide]
AC50 (TNFα): 0.063 µM
AC50 (IL12p40): 0.0522 µM
AC50 (IFNα): > 50 µM

CCCC[C@](C)(CNC(C)=O)Nc1nc(N)nc2cc(F)ccc12 [Example 2, (R)—N-(2-((2-amino-7-fluoroquinazolin-4-yl)amino)-2-methylhexyl)acetamide]
AC50 (TNFα): 0.0409 µM
AC50 (IL12p40): 0.00883 µM
AC50 (IFNα): > 50 µM

CCCC[C@](C)(CNC(C)=O)Nc1nc(N)nc2cc(F)c(F)cc12 [Example 3, (R)—N-(2-((2-amino-6,7-difluoroquinazolin-4-yl)amino)-2-methylhexyl)acetamide]
AC50 (TNFα): 0.812 µM
AC50 (IL12p40): 0.703 µM
AC50 (IFNα): > 50 µM

CCCC[C@](C)(CNC(C)=O)Nc1nc(N)nc2cnccc12 [Example 4, (R)—N-(2-((2-aminopyrido[3,4-d]pyrimidin-4-yl)amino)-2-methylhexyl)acetamide]
AC50 (TNFα): 0.11 µM
AC50 (IL12p40): 0.132 µM
AC50 (IFNα): > 50 µM

CCCC[C@](C)(CNC(C)=O)Nc1nc(N)nc2ncccc12 [Example 5, (R)—N-(2-((2-aminopyrido[2,3-d]pyrimidin-4-yl)amino)-2-methylhexyl)acetamide]
AC50 (TNFα): 0.543 µM
AC50 (IL12p40): 0.364 µM
AC50 (IFNα): > 50 µM

CCCC[C@](C)(CNC(C)=O)Nc1nc(N)nc2c1CCCC2 [Example 6, (R)—N-(2-((2-amino-5,6,7,8-tetrahydroquinazolin-4-yl)amino)-2-methylhexyl)acetamide]
AC50 (TNFα): 10.2 µM
AC50 (IL12p40): 9.58 µM
AC50 (IFNα): > 50 µM

CCCC[C@](C)(CNC(C)=O)Nc1nc(N)nc2c1CN(C(C)=O)CC2 [Example 7, (R)—N-(2-((6-acetyl-2-amino-5,6,7,8-tetrahydropyrido[4,3-d]pyrimidin-4-yl)amino)-2-methylhexyl)acetamide]
AC50 (TNFα): 2.5 µM
AC50 (IL12p40): 2.32 µM
AC50 (IFNα): > 50 µM

CCCC[C@](C)(CNC(C)=O)Nc1nc(N)nc2c1CCN(C(C)=O)C2 [Example 8, (R)—N-(2-((7-acetyl-2-amino-5,6,7,8-tetrahydropyrido[3,4-d]pyrimidin-4-yl)amino)-2-methylhexyl)acetamide]
AC50 (TNFα): 4.61 µM
AC50 (IL12p40): 3.63 µM
AC50 (IFNα): > 50 µM

CCCC[C@](C)(CNC(C)=O)Nc1nc(N)nc2ccsc12 [Example 9]
AC50 (TNFα): 1.1 µM
AC50 (IL12p40): 0.855 µM
AC50 (IFNα): > 50 µM

CCCC[C@H](CNC(C)=O)Nc1nc(N)nc2ccccc12 [Example 10, (R)—N-(2-((2-aminoquinazolin-4-yl)amino)hexyl)acetamide]
AC50 (TNFα): 1.67 µM
AC50 (IL12p40): 1.31 µM
AC50 (IFNα): > 50 µM

CCCC[C@H](CNC(C)=O)Nc1nc(N)nc2cc(F)ccc12 [Example 11, (R)—N-(2-((2-amino-7-fluoroquinazolin-4-yl)amino)hexyl)acetamide]
AC50 (TNFα): 0.561 µM
AC50 (IL12p40): 0.433 µM
AC50 (IFNα): > 50 µM

CCCC[C@H](CNC(C)=O)Nc1nc(N)nc2cc(F)c(F)cc12 [Example 12, (R)—N-(2-((2-amino-6,7-difluoroquinazolin-4-yl)amino)hexyl)acetamide]
AC50 (TNFα): 10.2 µM
AC50 (IL12p40): 12 µM
AC50 (IFNα): > 50 µM

CCCC[C@H](CNC(C)=O)Nc1nc(N)nc2ccsc12 [Example 13]
AC50 (TNFα): 9.52 µM
AC50 (IL12p40): 8.29 µM
AC50 (IFNα): > 50 µM

CCCC[C@](C)(CNC(C)=O)Nc1nc(N)nc2nccnc12 [Example 14, (R)—N-(2-((2-aminopteridin-4-yl)amino)-2-methylhexyl)acetamide]
AC50 (TNFα): 1.91 µM
AC50 (IL12p40): 1.9 µM
AC50 (IFNα): > 50 µM
